Assay results as given in PMC5867665, “Targeting Multiple Effector Pathways in Pancreatic Ductal Adenocarcinoma with a G-Quadruplex-Binding Small Molecule” (Journal of Medicinal Chemistry, 2018).

Test system: DNA human telomeric G4 sequence 5′-d(GGGTTAGGGTTAGGGTTAGGG)-3′
Assay: Quantitative G4 binding (fluorescence anisotropy and direct fluorescence titrations)
Experimental: Quantitative binding estimates as KD values were obtained from fluorescence anisotropy titrations (MM41) and direct fluorescence titrations (CM03). The DNA human telomeric G4 sequence 5′-d([…])-3′ was used to enable direct comparisons to be made with the modeling studies. Both compounds bind with nanomolar affinity to this DNA G4, with a ∼3-fold difference between MM41 (20 ± 2 nM) and CM03 (67 ± 4 nM).
Human telomeric DNA G4 was prepared using oligonucleotides purchased from Integrated DNA Technologies (Coralville, IA, USA). The DNA purity and sequence was verified by mass spectrometry. Desalted oligonucleotide sequences were initially suspended in 150 mM NH4OAc (pH 6.8) in nuclease-free water to yield a final concentration of 1 mM and determined spectroscopically at 260 nm using the nearest-neighbor method. […]
Fluorescence anisotropy measurements were obtained on a Variant Cary Eclipse fluorescence spectrophotometer (Agilent Technologies, Santa Clara, CA, USA) equipped with a polarization attachment. […]
To determine dissociation constants, MM41 was added to a 3 mL volume of the experimental buffer (50 mM KCl, 10 mM Tris-HCl, 1 mM EDTA in nuclease-free water at 25 °C, pH 7.3) in a quartz fluorescence cuvette at a fixed concentration of 50 nM, and G4 was titrated into the cuvette. […] Each set of measurements were taken from a 50 s average reading measurement (PMT = 630 V). […]

## O=C1c2ccc3c4c(c(NCCN5CCCC5)cc(c24)C(=O)N1CCCN1CCOCC1)C(=O)N(CCCN1CCOCC1)C3=O [CM03, 2,7-bis(3-morpholinopropyl)-4-((2-(pyrrolidin-1-yl)ethyl)amino)benzo[lmn][3,8]phenanthroline-1,3,6,8(2H,7H)-tetraone]
  difference in KD between MM41 and CM03: ~3 fold
